Results on 15 molecules are retold here after PMC8704891, “Natural Benzo/Acetophenones as Leads for New Synthetic Acetophenone Hybrids Containing a 1,2,3-Triazole Ring as Potential Antifouling Agents” (Marine Drugs, 2021).

One data set has as its system Ulva pertusa. The arrangement: method as in doi:10.3989/scimar.04638.13A. The conditions noted are these: cited from earlier work.
For data set [1], the system named is Roseobacter litoralis CECT 5395. Briefly: Biofilm-forming marine bacteria growth inhibition. The conditions noted are these: for EC50: Roseobacter litoralis, CECT5395; for R. litoralis biofilm growth inhibition: screening at 15 μM, 24 h, vs negative control (Dunnett, p < 0.01). The data set is classed as cell-based. Here is the method: Five strains of marine biofilm-forming bacteria from the Spanish Type Culture Collection (CECT): Cobetia marina CECT 4278, Vibrio harveyi CECT 525, Halomonas aquamarina CECT 5000, Pseudoalteromonas atlantica CECT 570, and Roseobacter litoralis CECT 5395 were selected for antibacterial screening. The experimental procedure was performed according to the previously reported. Briefly, bacteria were inoculated and incubated for 24 h at 26 °C in marine broth (Difco) at an initial density of 0.1 (OD600) in 96-well flat-bottom microtiter plates and exposed to the test compounds at 15 μM. Bacterial growth inhibition in the presence of the compounds was determined in quadruplicate at 600 nm using a microplate reader (BioTek Synergy HT, Winooski, VT, USA). Negative and positive controls used were a solution of marine broth with 0.1% DMSO, and a solution of marine broth with penicillin–streptomycin–neomycin, respectively. Bacterial growth inhibition calculations were made based in the formula ((Mc–Mt)/Mc) × 100, where Mc is the mean of the four replicates from negative control, and Mt is the mean of four replicates from each of the tested compounds.
(§1) Data from anti-settlement, antibacterial, and anti-microalgal bioassay were analyzed by one-way analysis of variance (ANOVA), followed by a multi-comparisons Dunnett’s test against negative control. For all of the bioassays, the half-maximum response concentration (EC50) values for each compound, when applicable, were calculated using probit regression analysis. Significance was considered at p < 0.01, and 95% lower and upper confidence limits (95% LCL; UCL). The software IBM SPSS Statistics 26 (Armonk, New York, NY, USA) was used for statistical analysis.

Data set [2] has as its system Mytilus galloprovincialis plantigrade larvae. Briefly: Mussel larvae anti-settlement bioassay. The conditions noted are these: for EC50: Mytilus galloprovincialis, dose-response 3.125-200 μM; for percentage of settlement: screening at 50 μM, 15 h. The data set is classed as in vivo. As for the experimental part: (§2) Mussel (Mytilus galloprovincialis) plantigrades were collected in juvenile aggregates during low neap tides at Memória beach, Matosinhos, Portugal (41°13′59″ N; 8°43′28″ W). In the laboratory, mussel plantigrade larvae (0.5–2 mm) were isolated in a binocular magnifier (Olympus SZX2-ILLT, Tokyo, Japan) to a petri dish with filtered seawater, and those with functional foot and competent exploring behavior were selected to the bioassays. Compounds were screened at 50 µM in 24-well microplates with 4-well replicates per condition and 5 larvae per well, for 15 h, in the darkness at 18 ± 1 °C, according to the previously reported. All compounds that caused more than 60% of settlement inhibition (≤40% of settlement) in the screening bioassay were considered active and selected for the determination of the semi-maximum response concentration that inhibited 50% of the larval settlement (EC50), at compounds concentrations of 3.125, 6.25, 12.5, 25, 50, 100, and 200 μM.
as §1

A short description of data set [3]: Mussel larvae anti-settlement bioassay. The data set is classed as in vivo. The conditions noted are these: Mytilus galloprovincialis (mussel) plantigrade larvae, in vivo; mussel plantigrade larvae; highest concentration tested 200 μM; read-out: LC50 (µM), median lethal dose. As for the experimental part:
as §2, §1

Data set [4] deals with Artemia salina nauplii. In words: Artemia salina nauplii lethality ecotoxicity bioassay. The data set is classed as in vivo. To be noted: 25 and 50 μM, 48 h exposure. Here is the method:
The brine shrimp (Artemia salina) nauplii lethality test was used to determine the ecotoxicity of 6a, 7a, and 9a to non-target organisms. Briefly, Artemia salina eggs were allowed to hatch in seawater for 48 h at 25 °C. Bioassays were performed in 96-well microplates with 15–20 nauplii per well and 200 μL of the compounds test solution. Test solutions were prepared in filtered seawater at concentrations of 25 and 50 μM. All tests included K2Cr2O7 as positive control and DMSO as a negative control. Bioassays run in the dark at 25 °C, and the percentage of mortality was determined after 48 h of exposure.

In another data set the test system is Navicula sp. Briefly: Biofilm-forming marine diatom growth inhibition. To be noted: for EC50: dose-response. The data set is classed as cell-based. As for the experimental part: The anti-microalgal activity of the most promising compounds was also evaluated against a benthic marine diatom, Navicula sp., purchased from the Spanish Collection of Algae (BEA), according to the previously reported. Briefly, diatom cells were inoculated in f/2 medium (Sigma) at an initial concentration of 2–4 × 10^6 cells·mL^−1 and grown in 96-well flat-bottom microtiter plates for 14 days in continuous light at 20 °C. […] Growth inhibition was calculated based in the formula ((Mc–Mt)/Mc) × 100, where Mc is the mean of the cell counts of the four replicates from negative control, and Mt is the mean of the cell counts of the four replicates from each of the tested compounds. Positive control with cycloheximide (3.55 μM) and negative control with f/2 medium 0.1% DMSO were included.
as §1

Data set [5] concerns Artemia salina nauplii. The arrangement: method as in PMID 31669574. To be noted: 25 and 50 μM; cited from earlier work.
The mark [6] stands for this setting: dose-response, read-out: EC50 (µM), R. litoralis growth.
Setting [7] is: dose-response, read-out: EC50 (µg·mL^−1), R. litoralis growth.
[8] abbreviates: 95% CI in brackets, read-out: EC50 (µM), concentration that inhibited 50% of larval settlement.

Structures are written as SMILES. Entries after “also recorded” stand apart in the source; their conditions may differ. Like-named read-outs stand apart in the source and are kept apart here.

As for `CC(=O)c1ccc(O)cc1O` [2,4-dihydroxyacetophenone], the “inhibition of spore attachment” value in the data set on Ulva pertusa is given as “significantly inhibit”.
As to `COc1cc(C(C)=O)cc(OC)c1OCc1cn(Cc2ccc(C#N)cc2)nn1` [Compound 3a, 4-((4-((4-Acetyl-2,6-dimethoxyphenoxy)methyl)-1H-1,2,3-triazol-1-yl)methyl)benzonitrile], the melting point lay in the range of 149.5 to 149.8 °C.
With `CC(=O)c1ccc(OCc2cn(Cc3ccc(C#N)cc3)nn2)cc1O` [Compound 3b, 4-((4-((4-Acetyl-3-hydroxyphenoxy)methyl)-1H-1,2,3-triazol-1-yl)methyl)benzonitrile], the melting point lay within 153.8 to 155.6 °C. Also, in data set [1] (setting [6]), the EC50 is 49.8 µM. Moreover, the EC50 in data set [1] (setting [7]) was 17.4 µg/mL. The “R. litoralis biofilm growth inhibition” value in data set [1] was “significantly inhibit”.
Regarding `COc1cc(C(C)=O)cc(OC)c1OCc1cn(-c2ccc(F)cc2)nn1` [Compound 4a, 1-(4-((1-(4-Fluorophenyl)-1H-1,2,3-triazol-4-yl)methoxy)-3,5-dimethoxyphenyl)ethan-1-one], the melting point was in the range of 160 to 160.5 °C.
Turning to `CC(=O)c1ccc(OCc2cn(-c3ccc(F)cc3)nn2)cc1O` [Compound 4b, 1-(4-((1-(4-Fluorophenyl)-1H-1,2,3-triazol-4-yl)methoxy)-2-hydroxyphenyl)ethan-1-one], the melting point was in the range of 145.9 to 148 °C. Also, the EC50 in data set [1] (setting [6]) is 105 µM. For the same molecule, the EC50 in data set [1] (setting [7]) was 34.4 µg/mL. In addition, in data set [1], the “R. litoralis biofilm growth inhibition” value is reported as “significantly inhibit”.
Molecule `COc1cc(C(C)=O)cc(OC)c1OCc1cn(-c2ccc(Br)cc2)nn1` [Compound 5a, 1-(4-((1-(4-Bromophenyl)-1H-1,2,3-triazol-4-yl)methoxy)-3,5-dimethoxyphenyl)ethan-1-one] displayed a melting point of 159.1 to 160.4 °C.
As to `CC(=O)c1ccc(OCc2cn(-c3ccc(Br)cc3)nn2)cc1O` [Compound 5b, 1-(4-((1-(4-Bromophenyl)-1H-1,2,3-triazol-4-yl)methoxy)-2-hydroxyphenyl)ethan-1-one], the melting point lay in the range of 183.3 to 184.8 °C.
For the molecule `COc1cc(C(C)=O)cc(OC)c1OCc1cn(-c2ccc(Cl)cc2)nn1` [Compound 6a, 1-(4-((1-(4-Chlorophenyl)-1H-1,2,3-triazol-4-yl)methoxy)-3,5-dimethoxyphenyl)ethan-1-one], the EC50 in data set [2] (setting [8]) turned out to be 28.9 µM. For the same molecule, in data set [2], the percentage of settlement was no more than 40%. Moreover, the LC50 at 15 h in data set [3] is greater than 200 µM.
Regarding `CC(=O)c1ccc(OCc2cn(-c3ccc(Cl)cc3)nn2)cc1O` [Compound 6b, 1-(4-((1-(4-Chlorophenyl)-1H-1,2,3-triazol-4-yl)methoxy)-2-hydroxyphenyl)ethan-1-one], the melting point fell in the range of 157 to 159.1 °C.
With `COc1cc(C(C)=O)cc(OC)c1OCc1cn(CCCO)nn1` [Compound 7a, 1-(4-((1-(3-Hydroxypropyl)-1H-1,2,3-triazol-4-yl)methoxy)-3,5-dimethoxyphenyl)ethan-1-one], in the data set with Artemia salina nauplii [4], the “mortality rate of Artemia salina nauplii” value is “not significantly different from negative control; also recorded: non-toxic”. For the same molecule, the EC50 in data set [2] (setting [8]) is 40.1 µM; in data set [2] (read-out: EC50 (µg·mL^−1), larval settlement), less than 25 µg/mL; in the data set with Navicula sp. (read-out: EC50 (µM), Navicula sp. growth) it was 26.7 µM; with Navicula sp. (read-out: EC50 (µg·mL^−1), Navicula sp. growth), 8.96 µg/mL. Also, the percentage of settlement in data set [2] is on record as no more than 40%. Besides, the LC50 at 15 h in data set [3] was greater than 200 µM. Besides, in the data set on Navicula sp. (15 µM (Figure 5 legend), 14 days), the “Navicula sp. growth inhibition screening” value was “showed inhibitory activity”.
In turn, `CC(=O)c1ccc(OCc2cn(CCCO)nn2)cc1O` [Compound 7b, 1-(2-Hydroxy-4-((1-(3-hydroxypropyl)-1H-1,2,3-triazol-4-yl)methoxy)phenyl)ethan-1-one] displayed a melting point of 69.2 to 70.5 °C. Also, the “EC50 (µM), R. litoralis growth” value in data set [1] (dose-response) is “not possible to estimate”. In addition, the “R. litoralis biofilm growth inhibition” value in data set [1] is reported as “significantly inhibit”.
Take `COc1ccc(-n2cc(COc3c(OC)cc(C(C)=O)cc3OC)nn2)cc1` [Compound 8a, 1-(3,5-Dimethoxy-4-((1-(4-methoxyphenyl)-1H-1,2,3-triazol-4-yl)methoxy)phenyl)ethan-1-one]: the melting point lay within 99.5 to 102.3 °C.
The same measure, in the same setting: next, `COc1ccc(-n2cc(COc3ccc(C(C)=O)c(O)c3)nn2)cc1` [Compound 8b, 1-(2-Hydroxy-4-((1-(4-methoxyphenyl)-1H-1,2,3-triazol-4-yl)methoxy)phenyl)ethan-1-one]: 115.1 to 117.5 °C.
In the case of `COc1cc(C(C)=O)cc(OC)c1OCc1cn([C@H]2O[C@@H](CO)[C@H](O)[C@@H](O)[C@@H]2NC(C)=O)nn1` [Compound 9a, N-((2S,3S,4S,5R,6S)-2-(4-((4-Acetyl-2,6-dimethoxyphenoxy)methyl)-1H-1,2,3-triazol-1-yl)-4,5-dihydroxy-6-(hydroxymethyl)tetrahydro-2H-pyran-3-yl)acetamide], the “mortality rate of Artemia salina nauplii” value in the data set on Artemia salina nauplii [4] was “not significantly different from negative control; also recorded: non-toxic”. In addition, in data set [2] (setting [8]), the EC50 came out at 20.7 µM. Besides, in data set [2], the percentage of settlement was no more than 40%. Moreover, the LC50 at 15 h in data set [3] was greater than 200 µM.
On to `N#Cc1c(-c2ccc(Cl)cc2)[nH]c(C(F)(F)F)c1Br` [ECONEA®], for which the “lethality to Artemia salina” value with Artemia salina nauplii [5] is 100%.
